Measurements taken from article PMC6273446, “Preliminary LC-MS Based Screening for Inhibitors of Plasmodium falciparum Thioredoxin Reductase (PfTrxR) among a Set of Antimalarials from the Malaria Box” (Molecules, 2016).
pEC50, pIC50: −log10 of the molar value. Read-outs that look alike come from different tables or passages of the source.

Legend:
[1] = biological target: T1, Plasmodium falciparum thioredoxin reductase (PfTrxR) (Plasmodium falciparum, UniProt P61076); test: biochemical; assay type: biochemical; conditions: for pIC50: cytosolic PfTrxR (PfTrxR 1 isoform), titrated 50 to 0.07 µM; for Hill slope of dose response curve against PfTrxR: Figure 2
T1 sequence (P61076 1-541 isoform P61076-2): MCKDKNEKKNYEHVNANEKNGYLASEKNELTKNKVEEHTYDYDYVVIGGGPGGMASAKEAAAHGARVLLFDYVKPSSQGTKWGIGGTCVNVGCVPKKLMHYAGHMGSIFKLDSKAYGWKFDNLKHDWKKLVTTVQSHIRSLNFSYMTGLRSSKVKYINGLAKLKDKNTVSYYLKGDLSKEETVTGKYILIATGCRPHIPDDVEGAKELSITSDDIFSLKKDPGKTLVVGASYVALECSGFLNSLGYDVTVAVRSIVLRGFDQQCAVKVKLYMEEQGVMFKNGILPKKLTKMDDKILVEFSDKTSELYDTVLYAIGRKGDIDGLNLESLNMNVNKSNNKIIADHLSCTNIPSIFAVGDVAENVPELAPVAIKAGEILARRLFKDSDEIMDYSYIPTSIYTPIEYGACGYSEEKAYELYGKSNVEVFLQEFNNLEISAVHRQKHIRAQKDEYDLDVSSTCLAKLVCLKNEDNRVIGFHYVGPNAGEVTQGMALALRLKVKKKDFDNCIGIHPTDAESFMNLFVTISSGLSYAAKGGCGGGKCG

P. falciparum 3D7 = conditions: read-out: Pf(3D7) EC50, cited from earlier work
[2] = tested on: MRC-5 cells (human fetal lung cells); conditions: cited from earlier work
[3] = chloroquine sensitive, sulfadoxine resistant strain, MMV database ref 10
[4] = read-out: MRC-5 Cells IC50, human fetal lung cells, cytotoxicity, MMV database ref 10

Row | SMILES | pIC50 [1] | Hill slope of dose response curve against PfTrxR [1] | pEC50 (P. falciparum 3D7) | pEC50 (P. falciparum 3D7; [3]) | pIC50 [2, 4] | pIC50 [2]
1 | O=C1C(O)=C([C@H]2CC[C@H](c3ccc(Cl)cc3)CC2)C(=O)c2ccccc21 [Atovaquone, reference compound] | < 5.00 | – | 9.62 | – | – | –
2 | CCN(CC)CCCC(C)Nc1ccnc2cc(Cl)ccc12 (centres unmarked) [Chloroquine, reference compound] | – | – | – | 7.56 | – | –
3 | C[C@@H]1CC[C@H]2[C@@H](C)C(=O)O[C@@H]3O[C@@]4(C)CC[C@@H]1[C@]32OO4 [Artemisinin, reference compound] | – | – | – | 7.68 | – | –
4 | N.N.[Cl][Pt][Cl] [Cisplatin, reference compound] | – | – | – | – | – | 4.71
5 | CCc1c(C)c(=N)c2ccccc2n1C [Compound 1, 2-ethyl-1,3-dimethylquinolin-4-imine;hydroiodide] | 5.46 | 1.1420 | – | 6.42 | – | –
6 | COc1ccccc1NC1=C(N2CCCCC2)C(=O)c2ccccc2C1=O [Compound 2, 2-(2-methoxyanilino)-3-piperidin-1-ylnaphthalene-1,4-dione] | 6.05 | 0.6031 | – | 8.28 | 4.16 | –

The next lines start with results.

Row | pIC50 [1] | Hill slope of dose response curve against PfTrxR [1] | SMILES | pEC50 (P. falciparum 3D7) | pEC50 (P. falciparum 3D7; [3]) | pIC50 [2, 4] | pIC50 [2]
7 | 5.18 | 0.8022 | CCOc1cc2c(cc1OCC)C(c1cc(OC)c(O)cc1Cl)NCC2 (centres unmarked) [Compound 3, 5-chloro-4-(6,7-diethoxy-1,2,3,4-tetrahydroisoquinolin-1-yl)-2-methoxyphenol] | – | 6.43 | 4.07 | –
8 | 5.12 | 1.1510 | CCCc1c(CC)c(=N)c2ccccc2n1C [Compound 5, 3-ethyl-1-methyl-2-propylquinolin-4-imine;hydron;iodide] | – | 6.62 | 4.15 | –
9 | – | 2.0020 | COc1ccc(-c2c(C)nn3c(N)c(C#N)cnc23)cc1OC [Compound 4, 7-amino-3-(3,4-dimethoxyphenyl)-2-methylpyrazolo[1,5-a]pyrimidine-6-carbonitrile] | – | 6.32 | < 4.00 | –
